Tests used:
hCA I = hCA I (Homo sapiens, UniProt P00915); assay: Carbonic anhydrase inhibition, stopped-flow CO2 hydration assay, isoenzyme CA I
Experimental: (§1) An SX.18MV-R Applied Photophysics stopped flow instrument was used for assaying the CA CO2 hydration activity. […] The buffer solution was constituted by 10 mM HEPES, 0.1 M Na2SO4, and TRIZMA hydrochloride 0.01 M, adjusting the pH solution at 7.5 with NaOH (0.1 M). […] Satured CO2 solution in bidistilled water at 20° C. was used as substrate.
(§2) Stock solutions of inhibitor (1 mM) were prepared with buffer solution with 10-20% (v/v) DMSO, and dilutions up to 0.1 nM. To allow for the formation of the E-1 complex, inhibitor and enzyme solutions were preincubated during 15 min at room temperature prior to assay. Enzyme concentration was 0.1 μM for CA I and II, 10 μM for CA IV. The human CA I and CA II are commercially available, whereas hCA IV (tumor) is cloned isoform.
Each experiment was done in triplicate.

hCA IV = hCA IV (Homo sapiens, UniProt P22748); assay: Carbonic anhydrase inhibition, stopped-flow CO2 hydration assay, isoenzyme CA IV
Experimental: as §1, §2
Each experiment was done in triplicate.

hCA II = hCA II (Homo sapiens, UniProt P00918); assay: Carbonic anhydrase inhibition, stopped-flow CO2 hydration assay, isoenzyme CA II
Experimental: as §1, §2
Each experiment was done in triplicate.

hCA I, sequence (P00915 whole entry): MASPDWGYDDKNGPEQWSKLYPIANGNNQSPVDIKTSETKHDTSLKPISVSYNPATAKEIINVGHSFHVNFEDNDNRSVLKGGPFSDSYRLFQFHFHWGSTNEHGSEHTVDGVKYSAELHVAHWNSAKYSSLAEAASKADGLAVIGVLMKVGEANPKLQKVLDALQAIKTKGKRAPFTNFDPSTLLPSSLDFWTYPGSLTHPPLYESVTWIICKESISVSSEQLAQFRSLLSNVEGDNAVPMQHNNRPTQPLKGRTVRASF
hCA IV, sequence (P22748 19-284 limits assumed): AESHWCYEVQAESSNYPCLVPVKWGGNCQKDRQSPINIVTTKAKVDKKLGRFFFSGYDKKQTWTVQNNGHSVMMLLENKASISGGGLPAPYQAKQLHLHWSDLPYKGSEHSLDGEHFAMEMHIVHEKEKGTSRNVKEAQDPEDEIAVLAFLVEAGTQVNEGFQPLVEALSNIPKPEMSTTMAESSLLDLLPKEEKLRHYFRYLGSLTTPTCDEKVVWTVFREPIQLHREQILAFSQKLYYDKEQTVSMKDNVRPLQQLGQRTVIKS

Compound	Ki (hCA I)	Ki (hCA IV)	Ki (hCA II)
CCN[C@H]1CC(C)S(=O)(=O)c2sc(S(=O)(=O)NC(=O)OCCCCO[N+](=O)[O-])cc21 (stereo partly drawn) [Ex. 7, (4S-trans)-4-(ethylamino)-5,6-dihydro-6-methyl-4H-thieno[2,3-b]thiopyran-2-sulfonylamido-N-(4-(nitrooxy)butyloxycarbonyl)-7,7-dioxide]	42300 nM	411 nM	886 nM
CCN[C@H]1CC(C)S(=O)(=O)c2sc(S(=O)(=O)NC(=O)CCCCCO[N+](=O)[O-])cc21 (stereo partly drawn) [Ex. 1, (4S-trans)-4-(ethylamino)-5,6-dihydro-6-methyl-4H-thieno[2,3-b]thiopyran-2-sulfonylamido-N((6-nitrooxy)hexanoyl)-7,7-dioxide]	15000 nM	3400 nM	251 nM

— US20100063035A1, “CARBONIC ANHYDRASE INHIBITORS DERIVATIVES” (Nicox S.A., priority 2006, published 2010)
